Results from patent US20210059995A1, “Composition for Protecting Cornea” (Kyoto University, priority 2017, published 2021).

Legend:
rabbit corneas [1] = experiment: Rabbit corneas preserved in Optisol-GS: transmission electron microscopy; settings: corneas preserved for one week in Optisol-GS at 4° C., compound 50 μM, FIG. 13
Experimental: (§1) Japanese white rabbits were euthanized, whole eyeballs were excised, and sclerocorneal preparations were prepared by using a razor blade. Each four sclerocorneal preparations were preserved in the following preservation solutions at 4° C. for 4 weeks; (1) Optisol-GS (control), (2) Optisol-GS+KUS121 (50 μM), or (3) Optisol-GS+KUS187 (20 μM). The tissues were sequentially embedded and sectioned.
Corneas preserved for one week were immersed in 0.1 M phosphate buffer containing 2% glutaraldehyde at 4° C. for prefixation, in 0.1 M phosphate buffer at 4° C. overnight for washing, and in 2% aqueous osmium solution at 4° C. for 3 hours for postfixation. For dehydration the corneas were successively immersed in ethanol solutions of high concentrations (50, 70, 90, 100, 100, and 100%) at 4° C. (50%) or a room temperature for 15 minutes. For substitution the corneas were immersed in propylene oxide at a room temperature for 45 minutes and then in a mixture of propylene oxide and epoxy resin at a room temperature for 1.5 hours. For embedding the samples and epoxy resin were put into capsules and cured at 60° C. for 48 hours. Then 80-90 nm sections were prepared by using an ultramicrotome and put on 200 meshes. The sections were stained with 2% uranyl acetate and lead and reinforced by carbon deposition (reinforcement of sections against electron beams). […]

rabbit corneas [2] = experiment: Rabbit corneas preserved in Optisol-GS: HE-staining microscopic findings and central corneal thickness; settings: Optisol-GS at 4° C., 1-4 weeks, KUS121 50 μM, KUS187 20 μM; for swelling of corneal endothelial cells during preservation: control swelled at week 1; for swelling of corneal endothelial cells during preservation / swelling of corneal stroma during preservation: FIG. 6; for swelling of corneal stroma during preservation: control swelled at week 3; for corneal epitheliums and cornea thicknesses versus control group: especially at week 3 or later, FIG. 6, 7
Experimental: as §1
The tissue sections were stained with HE-staining and observed by microscopy. The images were compared over time among the preservation conditions (FIG. 6). Microscopic images of the sections including the central parts of the corneas were obtained and the central corneal thicknesses were measured and compared over time among the preservation conditions (FIG. 7). In the corneas preserved in Optisol-GS (control), the corneal endothelial cells swelled at week 1 and the corneal stroma swelled at week 3.

[3] = tested on: immortalized human corneal endothelial cells (iHCECs); experiment: Cell morphology and apoptosis of thapsigargin-treated immortalized human corneal endothelial cells by phase-contrast microscopy; assay type: cell-based; settings: 10 μM thapsigargin for 8 hours, compound 10, 25, 50 or 100 μM with 24 hours pretreatment, FIG. 4
Experimental: Corneas for research were imported from SightLife™ (Seattle, Wash.). The cornea endothelial cells were stripped from the corneas with Descemet's membranes and immersed in a corneal preservation solution (Optisol-GS, Bausch & Lomb Incorporated). The cornea endothelial cells were treated with collagenase and collected. The cells were cultured in a conditioned medium which was prepared by culturing 3T3 cells in OptiMEM (Gibco, 3195070) with 10% fetal bovine serum (FBS) for 24 hours and then adding 10 μM SB203580 (Funakoshi, 13067) and 1 μM SB431542 (Wako, 192-16541) to the culture medium.
The corneal endothelial cells were immortalized by the following procedures. SV40 large T antigen and hTERT genes were amplified by PCR, and introduced into a lentiviral vector (pLenti6.3-V5-TOPO; Life Technologies Inc.). The lentiviral vector and three helper plasmids (pLP1, pLP2, pLP/VSVG; Life Technologies Inc.) were transfected into 293T cells (RCB2202; Riken Bioresource Center, Ibaraki, Japan) with a transfection reagent (Fugene HD; Promega Corp., Madison, Wis.). The culture supernatant containing the virus was collected 48 hours after the transfection and added to the culture medium of the cornea endothelial cells with 5 μg/ml of Polybrene, thereby the SV40 large T antigen and hTERT genes were introduced into the cells. […]

[4] = tested on: rabbit corneal epithelial cells; experiment: Rabbit corneas preserved in Optisol-GS: apoptosis of corneal epithelial cells by TUNEL assay; settings: Optisol-GS at 4° C., 1-4 weeks; KUS121 50 μM, KUS187 20 μM; FIG. 8-10
Experimental: as §1
The tissue sections were fluorescently stained by TUNEL method and observed by confocal microscopy. Images of the epithelial layers around the centers of the corneas were obtained in three different fields (FIG. 8). […] The total corneal epithelial cells stained with PI and the TUNEL-positive cells were counted and the percentages of the TUNEL-positive cells were calculated. The percentages were compared over time among the preservation conditions (FIG. 10). The TUNEL-positive apoptotic cells were increased in the corneal epithelial cells of the control group after week 1. The apoptosis was suppressed in the KUS121 and KUS187 groups.

[5] = tested on: rabbit corneal endothelial cells; experiment: Intracellular ATP concentration (luciferase assay) in cultured rabbit corneal endothelial cells; assay type: cell-based; settings: compound 50 μM, FIG. 3
Experimental: (§2) Whole eyeballs of Japanese white rabbits (Funakoshi Corporation) were cut along corneal limbus with a razor blade and the corneas were isolated. The corneal endothelial cells were mechanically scraped off and collected with a crescent knife. Primary cultures were prepared in a DMEM with 10% fetal bovine serum and 2 ng/ml bFGF. The sub-confluent cells were treated with trypsin and collected, then plated on 12-well plates at the equal density of 4×10^4 cells/well and cultured in the same medium for 24 hours. The cells were subsequently cultured in the following eight different conditions: (1) control (the medium+DMSO), (2) the medium+KUS121 (50 μM), (3) the medium+antimycin (20 μM), (4) the medium+antimycin (20 μM)+KUS121 (50 μM), (5) the medium+oligomycin (10 μM), (6) the medium+oligomycin (10 μM)+KUS121 (50 μM), (7) DMEM with 2 ng/ml bFGF (non-glucose); and (8) DMEM with 2 ng/ml bFGF (non-glucose)+KUS121 (50 μM).
The corneal endothelial cells cultured in the presence of the agents (P=1) were washed with PBS(−), treated with trypsin, suspended in the medium (DMEM with 10% fetal bovine serum and 2 ng/ml bFGF), and counted. Then 2.5×10^4 cells were centrifuged, suspended in PBS(−), and dispensed into 5 wells of a 96-well plate at the density of 5×10^3 cells/well. The cells were subjected to a luciferase assay (“Cell” ATP Assay reagent, TOYO B-Net CO., LTD.). The fluorescence intensities were measured as relative intracellular ATP concentrations using a luminometer.

[6] = tested on: rabbit corneal endothelial cells; experiment: Cell morphology (phase-contrast) of cultured rabbit corneal endothelial cells under antimycin, oligomycin or glucose deprivation; assay type: cell-based; settings: compound 50 μM
Experimental: as §2
After the addition of the agents, sequential phase-contrast images of the cultured corneal endothelial cells were obtained.

[7] = tested on: rabbit corneal endothelial cells; experiment: Rabbit corneas preserved in Optisol-GS: corneal endothelia by immunofluorescence staining of Na+/K+ ATPase; settings: Optisol-GS at 4° C., from week 1; KUS121 50 μM, KUS187 20 μM; FIG. 11
Experimental: as §1
The tissue sections were fluorescently stained with anti-Na+/K+ ATPase antibody, the corneal endothelia around the centers of the corneas were observed by indirect immunofluorescence microscopy, and the images were compared over time among the preservation conditions (FIG. 11).

[8] = tested on: immortalized human corneal endothelial cells (iHCECs); experiment: Western blot analysis of cleaved caspase 3 and PARP in thapsigargin-treated immortalized human corneal endothelial cells; assay type: cell-based; settings: 10 μM thapsigargin for 8 hours, compound 10, 25, 50 or 100 μM, FIG. 5
Experimental: The medium was changed to the medium containing 10 μM thapsigargin (WAKO, 209-17281) and KUS121 (10 μM, 25 μM, 50 μM, or 100 μM), and the cells were cultured for 8 hours. Medium: DMEM+10% FBS+1% P/S
After the observation of the morphology, western blot analysis was performed by the following procedures.
The media were collected from each well on ice, the cells were washed twice with 1×PBS(−), and the washings were collected. In order to collect suspended cells and dead cells, the collected media and washings were centrifuged at 4° C., 800 g, for 12 minutes, the supernatants were discarded and the pellets were obtained. Protein extraction buffers (RIPA; 50 mM Tris-HCl (pH 7.4), 150 mM NaCl, 1 mM EDTA, 0.1% SDS, 0.5% DOC, 1% NP-40) were added to the washed cells on ice. The cells were suspended together with the pellets of the suspended cells and dead cells. […]
The protein extracts (7 μg each) were separated by SDS-PAGE and transferred to a nitrocellulose membrane. […] The signals were detected by Chemi Lumi ONE Ultra (NACALAI TESQUE, INC., 11644-40). The intensities of the detected bands were analyzed by luminescent image analyzer LAS-4000 mini (Fujifilm Corporation) and ImageQuant™ software (GE Healthcare).

| Compound | swelling of the corneal stroma and the corneal endothelial cells (electron microscopy) (rabbit corneas [1]) | vacuolization of the corneal epithelial cells and loss of microvilli (rabbit corneas [1]) | swelling of corneal endothelial cells during preservation (rabbit corneas [2]) | swelling of corneal stroma during preservation (rabbit corneas [2]) | corneal epitheliums and cornea thicknesses versus control group (rabbit corneas [2]) | deformation of the cells (cell damage) caused by thapsigargin [3] | TUNEL-positive cells among corneal epithelial cells versus control group [4] | decrease of intracellular ATP concentration in the absence of glucose ([5]; absence of glucose for 96 hours) | decrease of intracellular ATP concentration caused by antimycin ([5]; antimycin 20 μM for 27 hours) | decrease of intracellular ATP concentration caused by oligomycin ([5]; oligomycin 10 μM for 27 hours) | death of corneal endothelial cells caused by antimycin ([6]; antimycin 20 μM, 28 hours after addition of the agents, FIG. 1) | death of corneal endothelial cells caused by glucose deprivation ([6]; cultured without glucose, 96 hours, FIG. 2) | death of corneal endothelial cells caused by oligomycin ([6]; oligomycin 10 μM, 28 hours after addition of the agents, FIG. 1) | corneal endothelial cells (Na+/K+ ATPase staining) versus control group [7] | band of cleaved caspase 3 (about 17 kDa) induced by thapsigargin [8] |
| --- | --- | --- | --- | --- | --- | --- | --- | --- | --- | --- | --- | --- | --- | --- | --- |
| Cc1cc(F)ccc1-c1ccc(N=Nc2cc(S(=O)(=O)[O-])c3ccccc3c2N)cn1.[Na+] [KUS121, 4-amino-3-[6-(4-fluoro-2-methylphenyl)pyridine-3-ylazo]naphthalene-1-sulfonic acid sodium salt] | observed in the control, but not in the corneas preserved in a solution containing KUS121 | observed in the control, but not in the corneas preserved in a solution containing KUS121 | the cell swelling was suppressed until week 2 | the corneal stroma swelling was kept mild until week 4 | maintained better | the deformation was suppressed | fewer through the test period than in the control group | the decrease was suppressed | the decrease was suppressed | the decrease was suppressed | the cell death was suppressed | the cell death was suppressed | the cell death was suppressed | maintained better | hardly detected |
| CCCCOc1c(C=O)cc(C)cc1-c1ccc(N=Nc2cc(S(=O)(=O)[O-])c3ccccc3c2N)cn1.[Na+] [KUS187, 4-amino-3-[6-(3-formyl-2-butoxy-5-methylphenyl)pyridine-3-ylazo]naphthalene-1-sulfonic acid sodium salt] | – | – | the cell swelling was suppressed until week 2 | the corneal stroma swelling was kept mild until week 4 | maintained better | – | fewer through the test period than in the control group | – | – | – | – | – | – | maintained better | – |
